These results are taken from US20050239753A1, “Methods of inhibition of MMTV-like viruses” (GILEAD SCIENCES, INC., priority 2004, published 2005).

A word on the IC50: it is the concentration that inhibits the measured activity by half. A higher IC50 goes with lower potency.

The target in assay [1] is T1, MMTV RT (Mouse mammary tumor virus, UniProt P03365). As to the kind of experiment: MMTV RT activity, filter-based [33P]dNTP incorporation assay on lysed MMTV particles. Type of assay: biochemical. Set-up: MMTV particles were isolated and concentrated from MM5MT cells (ATCC) after induction with dexamethasone and insulin; host or cells: MM5MT cells (virus-producing mouse mammary tumour line), induced with dexamethasone and insulin; lysed virions. Conditions: for potency against MMTV RT relative to 3TCppp: more potent than 3TCppp. As to the method: MMTV particles were isolated and concentrated from MM5MT cells (ATCC) after induction with dexamethasone and insulin as previously described (Fine, D., et al., In Vitro 12:693-701, 1976). Lysed particles were assayed for RT activity using a standard filter-based, [^33P]dNTP incorporation assay (modified from Wu, J., et al., J. Biol. Chem. 268:9980-9985, 1993). Inhibition of the RT activity was measured by adding the test compounds, the acyclic nucleoside diphosphophosphonates and cyclic nucleoside triphosphates, at various concentrations and 50% inhibitory concentrations (IC50) were calculated for each compound. All compounds tested were active against the MMTV RT. […] The activity of AZTppp against the MMTV RT as previously observed was confirmed with an IC50 value of 0.4 μM.
T1 sequence (P03365 861-1436): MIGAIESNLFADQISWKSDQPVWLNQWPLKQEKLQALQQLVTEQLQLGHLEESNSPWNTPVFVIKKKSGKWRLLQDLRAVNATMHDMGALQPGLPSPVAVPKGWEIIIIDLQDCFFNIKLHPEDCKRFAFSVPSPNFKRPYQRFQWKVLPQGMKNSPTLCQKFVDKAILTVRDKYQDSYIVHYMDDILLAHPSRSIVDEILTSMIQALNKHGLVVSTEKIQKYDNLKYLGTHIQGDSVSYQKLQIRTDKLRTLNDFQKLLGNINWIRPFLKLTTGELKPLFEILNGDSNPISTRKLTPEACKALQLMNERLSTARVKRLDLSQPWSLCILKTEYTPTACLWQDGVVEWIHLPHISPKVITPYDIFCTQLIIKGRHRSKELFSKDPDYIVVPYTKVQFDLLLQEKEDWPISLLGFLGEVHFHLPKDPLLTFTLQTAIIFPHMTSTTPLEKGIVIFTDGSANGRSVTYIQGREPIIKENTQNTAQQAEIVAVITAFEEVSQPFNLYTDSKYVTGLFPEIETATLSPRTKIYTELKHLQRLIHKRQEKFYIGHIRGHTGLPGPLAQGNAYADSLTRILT

The target of assay [2] is T1, MMTV RT. Conditions: cited from earlier work.

`Nc1ccn([C@@H]2CS[C@H](COP(=O)(O)OP(=O)(O)OP(=O)(O)O)O2)c(=O)n1` [3TCppp, reference compound] had an IC50 in assay [1] of 108 µM.
Turning to `Cc1cn([C@H]2C[C@H](N=[N+]=[N-])[C@@H](COP(=O)(O)OP(=O)(O)OP(=O)(O)O)O2)c(=O)[nH]c1=O` [AZTppp, reference compound], in assay [2], the “direct inhibition of the MMTV RT enzyme compared with HIV RT enzyme” value is reported as “as efficiently as the HIV RT enzyme”. Besides, in assay [1], the 50% inhibitory concentration (IC50) was 0.4 µM.
On to `Nc1nc(=O)n([C@@H]2CS[C@H](COP(=O)(O)OP(=O)(O)OP(=O)(O)O)O2)cc1F` [FTCppp, reference compound], for which 44 µM corresponded to half-maximal inhibition in assay [1] (IC50).
As for `Nc1ncnc2c1ncn2CCOCP(=O)(O)OP(=O)(O)OP(=O)(O)O` [PMEApp], in assay [1], the IC50 was approximately 4 µM, the “activity against the MMTV RT” value is “active” and the “potency against MMTV RT relative to 3TCppp” value was 25 fold.
For `C[C@H](Cn1cnc2c(N)ncnc21)OCP(=O)(O)OP(=O)(O)OP(=O)(O)O` [PMPApp] the same measures were approximately 4 µM, “active” and 25 fold.
